Assay results published in patent US9624214B2, “Amino-substituted imidazo[1,2-a]pyridinecarboxamides and their use” (BAYER PHARMA AKTIENGESELLSCHAFT, priority 2012, dated 2017).

biological target: T1, recombinant guanylate cyclase reporter cell line (Rattus norvegicus, UniProt P19686+P20595); test: B-2. Action on recombinant guanylate cyclase reporter cell line; assay type: cell-based; settings: MEC = minimal effective concentration; in some cases mean values from individual determinations
T1 construct: expressed in transfected cells
T1 sequence (P20595 1-619): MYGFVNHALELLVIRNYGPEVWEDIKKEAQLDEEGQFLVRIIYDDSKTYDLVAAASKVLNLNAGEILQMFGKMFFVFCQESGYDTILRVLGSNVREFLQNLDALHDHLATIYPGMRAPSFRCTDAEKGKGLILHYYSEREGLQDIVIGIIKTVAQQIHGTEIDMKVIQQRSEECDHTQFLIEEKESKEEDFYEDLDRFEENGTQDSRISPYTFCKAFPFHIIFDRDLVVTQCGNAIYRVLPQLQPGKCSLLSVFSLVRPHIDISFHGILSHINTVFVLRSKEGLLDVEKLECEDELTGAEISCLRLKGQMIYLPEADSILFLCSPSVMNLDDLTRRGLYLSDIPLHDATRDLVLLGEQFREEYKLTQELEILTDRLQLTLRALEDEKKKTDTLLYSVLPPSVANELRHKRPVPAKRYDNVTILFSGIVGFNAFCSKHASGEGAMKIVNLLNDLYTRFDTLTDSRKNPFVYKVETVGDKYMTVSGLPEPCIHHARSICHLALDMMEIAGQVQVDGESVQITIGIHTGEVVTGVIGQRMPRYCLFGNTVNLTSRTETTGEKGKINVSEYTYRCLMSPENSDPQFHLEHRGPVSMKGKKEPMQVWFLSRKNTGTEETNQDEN
T1 sequence (P19686 1-690): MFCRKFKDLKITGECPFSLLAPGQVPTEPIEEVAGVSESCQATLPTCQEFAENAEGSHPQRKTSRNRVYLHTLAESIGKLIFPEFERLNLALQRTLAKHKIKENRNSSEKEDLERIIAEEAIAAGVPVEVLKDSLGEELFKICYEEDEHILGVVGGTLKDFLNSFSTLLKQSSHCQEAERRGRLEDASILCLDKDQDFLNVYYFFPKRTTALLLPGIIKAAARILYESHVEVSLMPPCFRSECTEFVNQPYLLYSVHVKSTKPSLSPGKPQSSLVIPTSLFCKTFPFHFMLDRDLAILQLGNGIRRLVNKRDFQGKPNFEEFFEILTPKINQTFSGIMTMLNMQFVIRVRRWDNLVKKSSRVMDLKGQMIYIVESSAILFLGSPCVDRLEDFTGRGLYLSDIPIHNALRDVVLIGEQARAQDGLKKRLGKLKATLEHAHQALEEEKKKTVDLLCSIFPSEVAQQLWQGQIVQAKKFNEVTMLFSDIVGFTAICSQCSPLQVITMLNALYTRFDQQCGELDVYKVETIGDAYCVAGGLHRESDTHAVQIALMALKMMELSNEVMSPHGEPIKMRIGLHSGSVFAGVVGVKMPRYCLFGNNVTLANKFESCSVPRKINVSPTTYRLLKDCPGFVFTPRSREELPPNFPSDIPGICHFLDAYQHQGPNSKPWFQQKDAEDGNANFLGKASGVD
Method in brief: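 Rat recombinant guanylate cyclase reporter cell line measures cellular activity. Value reported as MEC (minimal effective concentration), sometimes averaged over individual determinations.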

Row | Structure (SMILES) | MEC [µM]
1 | CCCC(C)(N)CNC(=O)c1c(C)nc2c(OCc3cccc(C)c3F)cc(C)cn12 (racemic) [Example 317, rac-N-(2-amino-2-methylpentyl)-8-[(2-fluoro-3-methylbenzyl)oxy]-2,6-dimethylimidazo[1,2-a]pyridine-3-carboxamide] | 0.30
2 | Cc1nc2c(OCc3c(F)cccc3F)cc(Cl)cn2c1C(=O)NC(C)C1CCN(C)CC1 (racemic) [Example 78, rac-6-chloro-8-[(2,6-difluorobenzyl)oxy]-2-methyl-N-[1-(1-methylpiperidin-4-yl)ethyl]-imidazo[1,2-a]pyridine-3-carboxamide] | 1.00
3 | Cc1cc(OCc2c(F)cccc2F)c2nc(C)c(C(=O)NC3(C)CCC3(C)N)n2c1 (single isomer, unassigned; enantiomer b) [Example 337, ent-N-[(2-amino-1,2-dimethylcyclobutyl]-8-[(2,6-difluorobenzyl)oxy]-2,6-dimethylimidazo[1,2-a]pyridine-3-carboxamide (Enantiomer B)] | 0.55
4 | Cc1nc2c(OCc3c(F)cccc3F)cccn2c1C(=O)NCCN1CCOCC1 [Example 89, 8-[(2,6-difluorobenzyl)oxy]-2-methyl-N-[2-(morpholin-4-yl)ethyl]imidazo[1,2-a]pyridine-3-carboxamide] | 0.65
5 | Cc1nc2c(OCc3c(F)cccc3F)cccn2c1C(=O)NCCN1CCN(C)CC1 [Example 133, 8-[(2,6-difluorobenzyl)oxy]-2-methyl-N-[2-(4-methylpiperazin-1-yl)ethyl]imidazo[1,2-a]-pyridine-3-carboxamide] | 3.00
6 | Cc1nc2c(OCc3c(F)cccc3F)cccn2c1C(=O)NCC(C)(C)CN [Example 103, N-(3-amino-2,2-dimethylpropyl)-8-[(2,6-difluorobenzyl)oxy]-2-methylimidazo[1,2-a]-pyridine-3-carboxamide] | 3.00
7 | Cc1nc2c(OCc3c(F)cccc3F)cc(Cl)cn2c1C(=O)NCC(N)COC(C)C (racemic) [Example 217, rac-N-(2-Amino-3-isopropoxypropyl)-6-chloro-8-[(2,6-difluorobenzyl)oxy]-2-methylimidazo[1,2-a]pyridine-3-carboxamide] | 1.00
8 | Cc1cc(OCCC(C(F)(F)F)C(F)(F)F)c2nc(C)c(C(=O)NCC(C)(N)CC(C)C)n2c1 (racemic) [Example 258, rac-N-(2-Amino-2,4-dimethylpentyl)-2,6-dimethyl-8-[4,4,4-trifluoro-3-(trifluoromethyl)butoxy]-imidazo[1,2-a]pyridine-3-carboxamide] | 1.00
9 | Cc1cc(OCc2c(F)cccc2F)c2nc(C)c(C(=O)NC3CC(C)Nc4ccc(C(F)(F)F)nc43)n2c1 (single isomer, unassigned; ent-8) [Example 326, ent-8-[(2,6-Difluorobenzyl)oxy]-2,6-dimethyl-N-[2-methyl-6-(trifluoromethyl)-1,2,3,4-tetrahydro-1,5-naphthyridin-4-yl]imidazo[1,2-a]pyridine-3-carboxamide] | 0.30
10 | Cc1cc(OCc2c(F)cccc2F)c2nc(C)c(C(=O)NC3CCC3(C)N)n2c1 (single isomer, unassigned; enantiomer b) [Example 333, ent-N-[2-amino-2-methylcyclobutyl]-8-[(2,6-difluorobenzyl)oxy]-2,6-dimethylimidazo[1,2-a]pyridine-3-carboxamide (Enantiomer B)] | 1.00
11 | Cc1nc2c(OCc3c(F)cccc3F)cccn2c1C(=O)NCCN1CCS(=O)(=O)CC1 [Example 131, 8-[(2,6-difluorobenzyl)oxy]-N-[2-(1,1-dioxidothiomorpholin-4-yl)ethyl]-2-methylimidazo[1,2-a]pyridine-3-carboxamide] | 3.00
12 | CCCC[C@H](CN(C)C)NC(=O)c1c(C)nc2c(OCc3c(F)cccc3F)cccn12 [Example 68, ent-8-[(2,6-difluorobenzyl)oxy]-N-[(2R)-1-(dimethylamino)hexan-2-yl]-2-methylimidazo[1,2-a]pyridine-3-carboxamide] | 0.30
13 | Cc1nc2c(OCc3c(F)cccc3F)cccn2c1C(=O)NCCN1CCN(C2CC2)CC1 [Example 168, N-[2-(4-Cyclopropylpiperazin-1-yl)ethyl]-8-[(2,6-difluorobenzyl)oxy]-2-methylimidazo[1,2-a]-pyridine-3-carboxamide] | 1.00
14 | Cc1nc2c(OCc3ccccc3F)cccn2c1C(=O)NC(CN)c1ccc(F)c(F)c1 (stereo not drawn) [Example 98, ent-N-[2-Amino-1-(3,4-difluorophenyl)ethyl]-8-[(2-fluorobenzyl)oxy]-2-methylimidazo[1,2-a]-pyridine-3-carboxamide] | 1.00
15 | Cc1nc2c(OCc3c(F)cccc3F)cccn2c1C(=O)NCC1NCCc2ccccc21 (racemic) [Example 80, rac-8-[(2,6-difluorobenzyl)oxy]-2-methyl-N-(1,2,3,4-tetrahydroisoquinolin-1-ylmethyl)-imidazo[1,2-a]pyridine-3-carboxamide] | 1.00

Other lines, results leading:

Row | MEC [µM] | Structure (SMILES)
16 | 0.10 | Cc1cc(OCc2c(F)cccc2F)c2nc(C)c(C(=O)NCC(C)(N)CC(C)C)n2c1 (racemic) [Example 218, rac-N-(2-Amino-2,4-dimethylpentyl)-8-[(2,6-difluorobenzyl)oxy]-2,6-dimethylimidazo[1,2-a]-pyridine-3-carboxamide]
17 | 0.3 | Cc1cc(OCc2c(F)ccc(F)c2F)c2nc(C)c(C(=O)NCC(C)(N)CF)n2c1 (single isomer, unassigned; enantiomer a) [Example 285, ent-N-(2-amino-3-fluoro-2-methylpropyl)-2,6-dimethyl-8-[(2,3,6-trifluorobenzyl)oxy]imidazo[1,2-a]pyridine-3-carboxamide (Enantiomer A)]
18 | 0.10 | COc1ccc(CC(C)(N)CNC(=O)c2c(C)nc3c(OCc4c(F)cccc4F)cc(C)cn23)cc1 (racemic) [Example 368, rac-N-[2-amino-3-(4-methoxyphenyl)-2-methylpropyl]-8-[(2,6-difluorobenzyl)oxy]-2,6-dimethylimidazo[1,2-a]pyridine-3-carboxamide]
19 | 3.00 | CCC(C)(N)CNC(=O)c1c(C)nc2c(OCc3c(F)ccc(C4CC4)c3F)cc(C)cn12 (stereo not drawn) [Example 363, ent-N-(2-amino-2-methylbutyl)-8-[(3-cyclopropyl-2,6-difluorobenzyl)oxy]-2,6 dimethylimidazo[1,2-a]pyridine-3-carboxamide]
20 | 0.10 | C#Cc1cc(OCc2c(F)cccc2F)c2nc(C)c(C(=O)NCC(C)(N)CCC)n2c1 (stereo not drawn) [Example 356, ent-N-(2-amino-2-methylpentyl)-8-[(2,6-difluorobenzyl)oxy]-6-ethynyl-2-methylimidazo[1,2-a]pyridine-3-carboxamide]
21 | 0.30 | Cc1cc(OCc2c(F)cccc2F)c2nc(C)c(C(=O)NC3(C)CCC3(C)N)n2c1 (racemic) [Example 335, rac-N-[2-amino-1,2-dimethylcyclobutyl]-8-[(2,6-difluorobenzyl)oxy]-2,6-dimethylimidazo[1,2-a]pyridine-3-carboxamide]
22 | 0.30 | Cc1nc2c(OCc3c(F)cccc3F)cc(CF)cn2c1C(=O)NCC(C)(N)CF (stereo not drawn) [Example 405, ent-N-(2-amino-3-fluoro-2-methylpropyl)-8-[(2,6-difluorobenzyl)oxy]-6-(fluoromethyl)-2-methylimidazo[1,2-a]pyridine-3-carboxamide]
23 | 0.10 | Cc1nc2c(OCc3c(F)cccc3F)cccn2c1C(=O)NCC(C)(N)CC(C)C (single isomer, unassigned) [Example 203, ent-N-(2-Amino-2,4-dimethylpentyl)-8-[(2,6-difluorobenzyl)oxy]-2-methylimidazo[1,2-a]pyridine-3-carboxamide]
24 | 0.30 | CCC(C)(N)CNC(=O)c1c(C)nc2c(OCc3c(F)cccc3F)cc(CF)cn12 (stereo not drawn) [Example 404, ent-N-(2-amino-2-methylbutyl)-8-[(2,6-difluorobenzyl)oxy]-6-(fluoromethyl)-2-methylimidazo[1,2-a]pyridine-3-carboxamide]
